Measurements as given in ChEMBL document CHEMBL1125524, “Adenosine A1 antagonists. 2. Structure-activity relationships on diuretic activities and protective effects against acute renal failure” (J Med Chem, 1992).

Key:
Rattus norvegicus [1] = test: Ratio of urinary excretion value (urinary volume) in treated rats to that in control rats, at a peroral dose of 0.1 mg/Kg; type: functional, Urine
Rattus norvegicus [2] = test: Ratio of urinary excretion value (urinary volume) in treated rats to that in control rats, at a peroral dose of 0.4 mg/Kg; type: functional, Urine
Rattus norvegicus [3] = test: Ratio of urinary excretion value (urinary volume) in treated rats to that in control rats, at a peroral dose of 1.6 mg/Kg; type: functional, Urine
Rattus norvegicus [4] = test: Ratio of urinary excretion value (urinary volume) in treated rats to that in control rats, at a peroral dose of 25 mg/Kg; type: functional, Urine
Rattus norvegicus [5] = test: Oral diuretic activity was measured after oral administration of 0.1 mg/kg to rats(control volume is 1.10+/-0.09); type: functional, Urine
Rattus norvegicus [6] = test: Ratio of sodium ion/potassium ion concentration in treated rats to that in control rats, at a peroral dose of 0.1 mg/Kg; type: functional
Rattus norvegicus [7] = test: Ratio of sodium ion/potassium ion concentration in treated rats to that in control rats, at a peroral dose of 0.4 mg/Kg; type: functional
Rattus norvegicus [8] = test: Ratio of sodium ion/potassium ion concentration in treated rats to that in control rats, at a peroral dose of 1.6 mg/Kg; type: functional
Rattus norvegicus [9] = test: Ratio of sodium ion/potassium ion concentration in treated rats to that in control rats, at a peroral dose of 25 mg/Kg; type: functional
Rattus norvegicus [10] = test: Effect on urinary excretion potassium and sodium after oral administration of 1.6 mg/kg to rats(potassium and sodium excretion in control rat is 0.193+/-0.016); type: functional, Urine
Rattus norvegicus [11] = test: Ratio of urinary excretion value (Na+ concentration) in treated rats to that in control rats, at a peroral dose of 0.1 mg/Kg; type: functional, Urine
Rattus norvegicus [12] = test: Ratio of urinary excretion value (Na+ concentration) in treated rats to that in control rats, at a peroral dose of 0.4 mg/Kg; type: functional, Urine
Rattus norvegicus [13] = test: Ratio of urinary excretion value (Na+ concentration) in treated rats to that in control rats, at a peroral dose of 1.6 mg/Kg; type: functional, Urine
Rattus norvegicus [14] = test: Ratio of urinary excretion value (Na+ concentration) in treated rats to that in control rats, at a peroral dose of 25 mg/Kg; type: functional, Urine
Rattus norvegicus [15] = test: Ratio of urinary excretion value (Na+ concentration) in treated rats to that in control rats, at a peroral dose of 6.25 mg/Kg; type: functional, Urine
Rattus norvegicus [16] = test: Effect on urinary excretion potassium and sodium after oral administration of 25 mg/kg to rats(potassium and sodium excretion in control rat is 0.129+/-0.026); type: functional, Urine
Rattus norvegicus [17] = test: Oral diuretic activity was measured after oral administration of 25 mg/kg to rats(control volume is 1.00+/-0.13); type: functional, Urine
Rattus norvegicus [18] = test: Oral diuretic activity was measured after oral administration of 0.4 mg/kg to rats(control volume is 0.83+/-0.08); type: functional, Urine
Rattus norvegicus [19] = test: Oral diuretic activity was measured after oral administration of 1.6 mg/kg to rats(control volume is 0.91+/-0.08); type: functional, Urine
Rattus norvegicus [20] = test: Serum creatinine concentration measured after intraperitoneal administration of 1 mg/kg of compound to rats(vehicle 5.43+/-0.11); type: functional
Rattus norvegicus [21] = test: Effect on urinary excretion potassium and sodium after oral administration of 0.1 mg/kg to rats(potassium and sodium excretion in control rat is 0.169+/-0.018); type: functional, Urine
Rattus norvegicus [22] = test: Effect on urinary excretion potassium and sodium after oral administration of 0.4 mg/kg to rats(potassium and sodium excretion in control rat is 0.132+/-0.010); type: functional, Urine
Rattus norvegicus [23] = test: Urea nitrogen concentration measured after intraperitoneal administration of 1 mg/kg of compound to rats(vehicle 182.5+/-3.4); type: functional
Rattus norvegicus [24] = test: Percent inhibition of serum creatinine by the compound given as ratio of Cr value in treated to vehicle treated ones after intraperitoneal administration of 1 mg/kg of compound to rats(vehicle 5.43+/-0.11); type: functional; conditions: ip
Rattus norvegicus [25] = test: Percent inhibition of Urea nitrogen by the compound given as ratio of UN value in treated to vehicle treated ones after intraperitoneal administration of 1 mg/kg of compound to rats(vehicle 182.5+/-3.4); type: functional; conditions: ip
Rattus norvegicus [26] = test: Ratio of urinary excretion value (urinary volume) in treated rats to that in control rats, at a peroral dose of 6.25 mg/Kg; type: functional, Urine
Rattus norvegicus [27] = test: Serum creatinine concentration measured after intraperitoneal administration of 1 mg/kg of compound to rats(vehicle 4.74+/-0.31); type: functional
Rattus norvegicus [28] = test: Serum creatinine concentration measured after intraperitoneal administration of 0.1 mg/kg of compound to rats(vehicle 6.90+/-0.2); type: functional
Rattus norvegicus [29] = test: Effect on urinary excretion potassium and sodium after oral administration of 1.6 mg/kg to rats(potassium and sodium excretion in control rat is 0.174+/-0.013); type: functional, Urine
Rattus norvegicus [30] = test: Urea nitrogen concentration measured after intraperitoneal administration of 1 mg/kg of compound to rats(vehicle 138.8+/-7.8); type: functional
Rattus norvegicus [31] = test: Percent inhibition of serum creatinine by the compound given as ratio of Cr value in treated to vehicle treated ones after intraperitoneal administration of 1 mg/kg of compound to rats(vehicle 4.74+/-0.31); type: functional; conditions: ip
Rattus norvegicus [32] = test: Percent inhibition of serum creatinine by the compound given as ratio of Cr value in treated to vehicle treated ones after intraperitoneal administration of 0.1 mg/kg of compound to rats(vehicle 6.90+/-0.2); type: functional; conditions: ip
Rattus norvegicus [33] = test: Oral diuretic activity was measured after oral administration of 1.6 mg/kg to rats(control volume is 0.86+/-0.09); type: functional, Urine
Rattus norvegicus [34] = test: Urea nitrogen concentration measured after intraperitoneal administration of 0.1 mg/kg of compound to rats(vehicle 171.3+/-6.4); type: functional
Rattus norvegicus [35] = test: Percent inhibition of Urea nitrogen by the compound given as ratio of UN value in treated to vehicle treated ones after intraperitoneal administration of 1 mg/kg of compound to rats(vehicle 138.8+/-7.8); type: functional; conditions: ip
Rattus norvegicus [36] = test: Percent inhibition of Urea nitrogen by the compound given as ratio of UN value in treated to vehicle treated ones after intraperitoneal administration of 0.1 mg/kg of compound to rats(vehicle 171.3+/-6.4); type: functional; conditions: ip
Adenosine receptor A1 = biological target: T1, Adenosine receptor A1 (Cavia porcellus, UniProt P47745)
T1 sequence (P47745 whole entry): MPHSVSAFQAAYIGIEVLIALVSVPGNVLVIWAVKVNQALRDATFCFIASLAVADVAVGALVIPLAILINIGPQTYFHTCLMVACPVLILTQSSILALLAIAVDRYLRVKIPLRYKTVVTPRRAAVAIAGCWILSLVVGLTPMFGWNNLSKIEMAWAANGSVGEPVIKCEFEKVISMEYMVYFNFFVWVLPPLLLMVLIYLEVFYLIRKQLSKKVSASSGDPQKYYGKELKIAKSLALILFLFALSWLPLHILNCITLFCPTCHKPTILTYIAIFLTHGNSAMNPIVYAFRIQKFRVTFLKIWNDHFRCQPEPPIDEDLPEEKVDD
Description: Binding affinity against adenosine A1 receptor in guinea pig forebrain membranes using N6-[3H]cyclohexyladenosine as radioligand

In the case of `CCCn1c(=O)c2[nH]c(C3CCCC3)nc2n(CCC)c1=O` [1,3-DIPROPYL-8-CYCLOPENTYLXANTHINE [DPCPX]], the T/C (Rattus norvegicus [1]) is reported as 1.24, the T/C (Rattus norvegicus [2]) is reported as 2.47 and the T/C (Rattus norvegicus [3]) is reported as 2.79. The T/C (Rattus norvegicus [4]) was 1.93, the Urine volume (Rattus norvegicus [5]) was 1.36 ml 6hr-1 100g-1 and the “Na+/K+” value (Rattus norvegicus [6]) was 1.54. The “Na+/K+” value (Rattus norvegicus [7]) was 1.76, the “Na+/K+” value (Rattus norvegicus [8]) was 1.57 and the “Na+/K+” value (Rattus norvegicus [9]) was 1.27. For the same compound, the Na (Rattus norvegicus [10]) was 0.449 m equiv 6hr-1 100g-1, the T/C (Rattus norvegicus [11]) was 1.27 and the T/C (Rattus norvegicus [12]) was 2.28. For the same compound, the T/C (Rattus norvegicus [13]) was 2.33, the T/C (Rattus norvegicus [14]) was 2.46 and the T/C (Rattus norvegicus [15]) was 1.98. It also gave a Na (Rattus norvegicus [16]) of 0.316 m equiv 6hr-1 100g-1, a Urine volume (Rattus norvegicus [17]) of 1.93 ml 6hr-1 100g-1 and a Urine volume (Rattus norvegicus [18]) of 2.05 ml 6hr-1 100g-1. The Urine volume (Rattus norvegicus [19]) was 2.54 ml 6hr-1 100g-1, the Cr (Rattus norvegicus [20]) was 3.75 mg/dL and the Na (Rattus norvegicus [21]) was 0.215 m equiv 6hr-1 100g-1. The Na (Rattus norvegicus [22]) was 0.302 m equiv 6hr-1 100g-1, the UN (Rattus norvegicus [23]) was 131.7 mg/dL and the inhibition in vivo at 1 mg/kg (Rattus norvegicus [24]) was 31%. It also gave an inhibition in vivo at 1 mg/kg (Rattus norvegicus [25]) of 27% and a T/C (Rattus norvegicus [26]) of 1.87.
`Cn1c(=O)c2nc(C3CCCC3)[nH]c2n(C)c1=O` [8-CYCLOPENTYLTHEOPHYLLINE] gave a Cr (Rattus norvegicus [27]) of 2.22 mg/dL, a Cr (Rattus norvegicus [28]) of 7.26 mg/dL and a Na (Rattus norvegicus [29]) of 0.217 m equiv 6hr-1 100g-1. It also gave a UN (Rattus norvegicus [30]) of 63.6 mg/dL, an inhibition in vivo at 1 mg/kg (Rattus norvegicus [31]) of 53% and a T/C (Rattus norvegicus [3]) of 1.23. The “Na+/K+” value (Rattus norvegicus [8]) was 1.12, the T/C (Rattus norvegicus [13]) was 1.25 and the T/C (Rattus norvegicus [15]) was 1.82. For the same compound, the inhibition in vivo at 0.1 mg/kg (Rattus norvegicus [32]) was -5%, the Urine volume (Rattus norvegicus [33]) was 1.06 ml 6hr-1 100g-1 and the UN (Rattus norvegicus [34]) was 168.7 mg/dL. The inhibition in vivo at 1 mg/kg (Rattus norvegicus [35]) was 54%, the inhibition in vivo at 0.1 mg/kg (Rattus norvegicus [36]) was 1% and the T/C (Rattus norvegicus [26]) was 1.64. It also gave a Ki (Adenosine receptor A1) of 95 nM.
